PubChem BioAssay (NCI)
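Interpolation was linear, between the two tested concentrations surrounding the appropriate level; five concentrations were tested over 48 hours in 96-well plates. At the GI50, growth is halved. TGI: total growth inhibition.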

Columns and labels:
Experiment in all cases: NCI tumour cell line growth inhibition, 48 h
CAKI-1 renal = tested on: CAKI-1 renal
786-0 renal = tested on: 786-0 renal
OVCAR-4 ovarian = tested on: OVCAR-4 ovarian
UACC-257 melanoma = tested on: UACC-257 melanoma
HT29 colon = tested on: HT29 colon
RPMI-8226 leukemia = tested on: RPMI-8226 leukemia
A549 NSCLC = tested on: A549 NSCLC
SF-268 CNS = tested on: SF-268 CNS
MDA-MB-231 breast = tested on: MDA-MB-231 breast
U251 CNS = tested on: U251 CNS
RXF 393 renal = tested on: RXF 393 renal
HCC-2998 colon = tested on: HCC-2998 colon
KM12 colon = tested on: KM12 colon
SW-620 colon = tested on: SW-620 colon
MDA-MB-435 = tested on: MDA-MB-435
NCI-H226 lung = tested on: NCI-H226 lung
MOLT-4 leukemia = tested on: MOLT-4 leukemia
MCF7 breast = tested on: MCF7 breast
NCI-H522 lung = tested on: NCI-H522 lung
ACHN renal = tested on: ACHN renal
LOX IMVI melanoma = tested on: LOX IMVI melanoma
SK-OV-3 ovarian = tested on: SK-OV-3 ovarian
TK-10 renal = tested on: TK-10 renal
SNB-19 CNS = tested on: SNB-19 CNS
NCI-H23 lung = tested on: NCI-H23 lung
HCT-116 colon = tested on: HCT-116 colon
T-47D breast = tested on: T-47D breast
HS 578T breast = tested on: HS 578T breast
IGROV1 ovarian = tested on: IGROV1 ovarian
OVCAR-8 ovarian = tested on: OVCAR-8 ovarian
HOP-62 NSCLC = tested on: HOP-62 NSCLC
COLO 205 colon = tested on: COLO 205 colon
A498 renal = tested on: A498 renal
HL-60(TB) leukemia = tested on: HL-60(TB) leukemia
HOP-92 NSCLC = tested on: HOP-92 NSCLC
SK-MEL-28 melanoma = tested on: SK-MEL-28 melanoma
BT-549 breast = tested on: BT-549 breast
K-562 leukemia = tested on: K-562 leukemia
SK-MEL-5 melanoma = tested on: SK-MEL-5 melanoma
SN12C renal = tested on: SN12C renal
SF-539 CNS = tested on: SF-539 CNS
M14 melanoma = tested on: M14 melanoma
HCT-15 colon = tested on: HCT-15 colon
PC-3 prostate = tested on: PC-3 prostate
UACC-62 melanoma = tested on: UACC-62 melanoma
NCI/ADR-RES ovarian = tested on: NCI/ADR-RES ovarian
OVCAR-5 ovarian = tested on: OVCAR-5 ovarian
UO-31 renal = tested on: UO-31 renal
EKVX NSCLC = tested on: EKVX NSCLC
DU-145 prostate = tested on: DU-145 prostate
SK-MEL-2 melanoma = tested on: SK-MEL-2 melanoma
SF-295 CNS = tested on: SF-295 CNS
MALME-3M melanoma = tested on: MALME-3M melanoma
OVCAR-3 ovarian = tested on: OVCAR-3 ovarian
NCI-H460 lung = tested on: NCI-H460 lung

Cc1cc[c-]cc1.Fc1c[c-]c(-c2ccccn2)c(F)c1.[Pt+2].c1ccc(P(C[PH+](c2ccccc2)c2ccccc2)c2ccccc2)cc1
GI50 (CAKI-1 renal): 2.43 µM
TGI (CAKI-1 renal): 9.03 µM
GI50 (786-0 renal): 2.92 µM
TGI (786-0 renal): 10.1 µM
GI50 (OVCAR-4 ovarian): 2.17 µM
TGI (OVCAR-4 ovarian): 9.4 µM
GI50 (UACC-257 melanoma): 2.37 µM
TGI (UACC-257 melanoma): 8.15 µM
GI50 (HT29 colon): 2.61 µM
TGI (HT29 colon): 12.4 µM
GI50 (RPMI-8226 leukemia): 0.719 µM
TGI (RPMI-8226 leukemia): 4.38 µM
GI50 (A549 NSCLC): 1.43 µM
TGI (A549 NSCLC): 12.1 µM
GI50 (SF-268 CNS): 2.9 µM
TGI (SF-268 CNS): 13.5 µM
GI50 (MDA-MB-231 breast): 2.6 µM
TGI (MDA-MB-231 breast): 8.47 µM
GI50 (U251 CNS): 2.32 µM
TGI (U251 CNS): 12.2 µM
GI50 (RXF 393 renal): 2.45 µM
TGI (RXF 393 renal): 8.64 µM
GI50 (HCC-2998 colon): 2.96 µM
TGI (HCC-2998 colon): 12.1 µM
GI50 (KM12 colon): 2.4 µM
TGI (KM12 colon): 9.23 µM
GI50 (SW-620 colon): 2.83 µM
TGI (SW-620 colon): 12.4 µM
GI50 (MDA-MB-435): 2.18 µM
TGI (MDA-MB-435): 6.2 µM
GI50 (NCI-H226 lung): 2.93 µM
TGI (NCI-H226 lung): 11.6 µM
GI50 (MOLT-4 leukemia): 3.35 µM
TGI (MOLT-4 leukemia): 12.2 µM
GI50 (MCF7 breast): 2.33 µM
TGI (MCF7 breast): 7.83 µM
GI50 (NCI-H522 lung): 2.12 µM
TGI (NCI-H522 lung): 8.27 µM
GI50 (ACHN renal): 2.89 µM
TGI (ACHN renal): 9.84 µM
GI50 (LOX IMVI melanoma): 2.19 µM
TGI (LOX IMVI melanoma): 6.24 µM
GI50 (SK-OV-3 ovarian): 2.77 µM
TGI (SK-OV-3 ovarian): 7.79 µM
GI50 (TK-10 renal): 2.93 µM
TGI (TK-10 renal): 14.8 µM
GI50 (SNB-19 CNS): 2.81 µM
TGI (SNB-19 CNS): 12.8 µM
GI50 (NCI-H23 lung): 2.21 µM
TGI (NCI-H23 lung): 8.67 µM
GI50 (HCT-116 colon): 2.65 µM
TGI (HCT-116 colon): 11.2 µM
GI50 (T-47D breast): 2.34 µM
TGI (T-47D breast): 9.47 µM
GI50 (HS 578T breast): 2.61 µM
TGI (HS 578T breast): 9.94 µM
GI50 (IGROV1 ovarian): 2.11 µM
TGI (IGROV1 ovarian): 12.2 µM
GI50 (OVCAR-8 ovarian): 2.68 µM
TGI (OVCAR-8 ovarian): 15.4 µM
GI50 (HOP-62 NSCLC): 2.84 µM
TGI (HOP-62 NSCLC): 10.7 µM
GI50 (COLO 205 colon): 1.84 µM
TGI (COLO 205 colon): 3.76 µM
GI50 (A498 renal): 2.04 µM
TGI (A498 renal): 6.11 µM
GI50 (HL-60(TB) leukemia): 2.36 µM
TGI (HL-60(TB) leukemia): 6.88 µM
GI50 (HOP-92 NSCLC): 1.57 µM
TGI (HOP-92 NSCLC): 4.97 µM
GI50 (SK-MEL-28 melanoma): 2.86 µM
TGI (SK-MEL-28 melanoma): 10.3 µM
GI50 (BT-549 breast): 2.62 µM
TGI (BT-549 breast): 12.2 µM
GI50 (K-562 leukemia): 1.56 µM
TGI (K-562 leukemia): 12.2 µM
GI50 (SK-MEL-5 melanoma): 1.66 µM
TGI (SK-MEL-5 melanoma): 3.05 µM
GI50 (SN12C renal): 2.4 µM
TGI (SN12C renal): 10.1 µM
GI50 (SF-539 CNS): 3.34 µM
TGI (SF-539 CNS): 12.4 µM
GI50 (M14 melanoma): 2.91 µM
TGI (M14 melanoma): 13.7 µM
GI50 (HCT-15 colon): 3.21 µM
TGI (HCT-15 colon): 12.6 µM
GI50 (PC-3 prostate): 1.76 µM
TGI (PC-3 prostate): 11.7 µM
GI50 (UACC-62 melanoma): 2.04 µM
TGI (UACC-62 melanoma): 9.31 µM
GI50 (NCI/ADR-RES ovarian): 13.9 µM
TGI (NCI/ADR-RES ovarian): 48.2 µM
GI50 (OVCAR-5 ovarian): 2.99 µM
TGI (OVCAR-5 ovarian): 11.9 µM
GI50 (UO-31 renal): 2.13 µM
TGI (UO-31 renal): 7.53 µM
GI50 (EKVX NSCLC): 2.32 µM
TGI (EKVX NSCLC): 12.7 µM
GI50 (DU-145 prostate): 2.99 µM
TGI (DU-145 prostate): 12.8 µM
GI50 (SK-MEL-2 melanoma): 2.36 µM
TGI (SK-MEL-2 melanoma): 6.61 µM
GI50 (SF-295 CNS): 2.56 µM
TGI (SF-295 CNS): 10.2 µM
GI50 (MALME-3M melanoma): 1.7 µM
TGI (MALME-3M melanoma): 5.06 µM
GI50 (OVCAR-3 ovarian): 1.72 µM
TGI (OVCAR-3 ovarian): 10.6 µM
GI50 (NCI-H460 lung): 1.77 µM
TGI (NCI-H460 lung): 7.1 µM
